Experiment: blood bilirubin in subjects with a UGT1A1 mutation receiving COMPOUND 1
Format: in vivo, human
Excerpt: All toxicity ≥Grade 3 not due to underlying AML or complications of the disease or myelosuppressive treatment, with the exception of ≥Grade 3 blood bilirubin increases in subjects with a UGT1A1 mutation receiving COMPOUND 1.

## CC(C)(O)CNc1nc(Nc2ccnc(C(F)(F)F)c2)nc(-c2cccc(C(F)(F)F)n2)n1 [COMPOUND 1, 2-methyl-1-[(4-[6-(trifluoromethyl)pyridin-2-yl]-6-{[2-(trifluoromethyl)pyridin-4-yl]amino}-1,3,5-triazin-2-yl)amino]propan-2-ol]
  blood bilirubin increases: isolated blood bilirubin increases have been seen

Source: patent publication US10905692B2, “Combination therapy for treating malignancies” (Agios Pharmaceuticals, Inc., priority 2015, dated 2021)
